Experimental data taken from publication PMC12526004, “Tiliroside Suppresses Uric Acid Production in Hepatocytes and Attenuates Purine-Induced Hyperuricemia in Male ICR Mice” (Molecules, 2025).

Experiments:
Format in all cases: in vivo, male ICR mice
[1] = tested on: mice with purine-induced hyperuricemia; test: Hepatic UA level in hyperuricemic model mice; details: three days; for Hepatic UA Level: mean ± SEM
Experimental: (§1) The antihyperuricemic effect of tiliroside was evaluated using mice with purine-induced hyperuricemia, following a previously described procedure. […] The test compounds were suspended in 0.2 mL of 0.5% CMC-Na based on the average body weight of each group. The actual volume administered was adjusted according to the individual body weight of each mouse. Prior to each administration, the mice were fasted for four hours. The negative and hyperuricemic control groups received the vehicle (0.5% CMC-Na) alone. […] GMP and IMP were dissolved in 0.2 mL of PBS (–) based on the average body weight of all mice. The injection volume was similarly adjusted according to each mouse’s body weight. These injections were performed one hour after the final oral administration of the test compounds or vehicle. The negative control group received PBS (–) alone. […] The liver and kidneys were then excised. Blood samples were centrifuged at 5000× g for 10 min at 4 °C to obtain plasma, which was stored at −80 °C until analysis. Liver samples preparation was performed according to the methods previously described. Each portion of the liver tissue was processed for a specific analysis. One portion was homogenized in ice-cold 100 mM Tris-HCl buffer (pH 7.5), followed by sonication and centrifugation at 10,000× g for 5 min at 4 °C. The resulting supernatant was collected for the determination of UA levels. Another portion was treated similarly using Tris-HCl buffer containing 1 mM EDTA-2Na, and the supernatant was used to measure XO activity. The final portion was homogenized in ice-cold RIPA lysis buffer (Nacalai Tesque) and centrifuged under the same conditions, and the resulting supernatant was used for Western blot analysis. UA concentrations in plasma and liver homogenates were determined using the uricase-based Uric Acid C-Test Wako. Protein concentrations in the liver samples were measured with the Pierce™ BCA Protein Assay Kit. Liver UA levels were expressed as milligrams per gram of liver protein (mg/g protein).

NPT4 = test: Renal mRNA expression, real-time quantitative PCR; details: three days
Experimental: (§2) The antihyperuricemic effect of tiliroside was evaluated using mice with purine-induced hyperuricemia, following a previously described procedure. […] The test compounds were suspended in 0.2 mL of 0.5% CMC-Na based on the average body weight of each group. The actual volume administered was adjusted according to the individual body weight of each mouse. Prior to each administration, the mice were fasted for four hours. The negative and hyperuricemic control groups received the vehicle (0.5% CMC-Na) alone. […] GMP and IMP were dissolved in 0.2 mL of PBS (–) based on the average body weight of all mice. The injection volume was similarly adjusted according to each mouse’s body weight. These injections were performed one hour after the final oral administration of the test compounds or vehicle. The negative control group received PBS (–) alone. […] The liver and kidneys were then excised. Blood samples were centrifuged at 5000× g for 10 min at 4 °C to obtain plasma, which was stored at −80 °C until analysis. To assess renal gene expression, four mice per group were selected based on plasma UA levels approximating the group mean. Total RNA was extracted from kidney tissues of the negative control, hyperuricemic model, allopurinol-treated, and high-dose tiliroside-treated groups using the Trizol-chloroform method (Thermo Fisher Scientific). Reverse transcription was performed with 1 µg of RNA using iScript reverse transcriptase (Bio-Rad, Hercules, CA, USA). Quantitative PCR was conducted using the MyiQ2 real-time PCR system (Bio-Rad), with GAPDH as the reference gene.

OAT1 = test: Renal mRNA expression, real-time quantitative PCR; details: three days
Experimental: as §2

URAT1 = test: Renal mRNA expression, real-time quantitative PCR; details: three days, vs hyperuricemic control
Experimental: as §2

[2] = tested on: hepatic XO protein expression; test: Western blot of hepatic XO protein expression; details: three days, normalized to GAPDH
Experimental: as §1, with “Another portion was treated similarly using Tris-HCl buffer containing 1 mM EDTA-2Na, and the supernatant was used to measure XO activity. The final portion was homogenized in ice-cold RIPA lysis buffer (Nacalai Tesque) and centrifuged under the same conditions, and the resulting supernatant was used for Western blot analysis. UA concentrations in plasma and liver homogenates were determined using the uricase-based Uric Acid C-Test Wako. Protein concentrations in the liver samples were measured with the Pierce™ BCA Protein Assay Kit. Liver UA levels were expressed as milligrams per gram of liver protein (mg/g protein).” left out

| Compound | Hepatic UA Level ([1]; 10 mg/kg body weight oral) | renal NPT4 mRNA expression (NPT4; 10 mg/kg oral) | renal OAT1 mRNA expression (OAT1; 10 mg/kg oral) | renal URAT1 mRNA expression (URAT1; 10 mg/kg oral) | hepatic XO protein expression ([2]; 10 mg/kg oral) | Hepatic UA Level ([1]; 50 mg/kg oral) | Hepatic UA Level ([1]; 100 mg/kg oral) | lowering of hepatic UA level ([1]; 300 mg/kg oral, hyperuricemic mice) | Hepatic UA Level ([1]; 300 mg/kg oral) | renal NPT4 mRNA expression (NPT4; 300 mg/kg oral) | renal OAT1 mRNA expression (OAT1; 300 mg/kg oral) | renal URAT1 mRNA expression (URAT1; 300 mg/kg oral) | hepatic XO protein expression ([2]; all tested doses (50, 100, and 300 mg/kg) oral) |
| --- | --- | --- | --- | --- | --- | --- | --- | --- | --- | --- | --- | --- | --- |
| Oc1ncnc2[nH]ncc12 [Allopurinol, allopurinol, reference compound] | 0.60 ± 0.03 mg/g Protein | no significant differences | no significant differences | significantly downregulated | No statistically significant differences | – | – | – | – | – | – | – | – |
| O=C(/C=C/c1ccc(O)cc1)OC[C@H]1O[C@@H](Oc2c(-c3ccc(O)cc3)oc3cc(O)cc(O)c3c2=O)[C@H](O)[C@@H](O)[C@@H]1O [Tiliroside, kaempferol-3-O-(6′′-p-coumaroyl)-glucoside] | – | – | – | – | – | 1.30 ± 0.16 mg/g Protein | 1.13 ± 0.16 mg/g Protein | ~55% | 0.79 ± 0.11 mg/g Protein | no significant differences | no significant differences | significantly downregulated | No statistically significant differences |
